Laboratory results from PMC6630718, “Discovery of Novel UV-Filters with Favorable Safety Profiles in the 5-Arylideneimidazolidine-2,4-dione Derivatives Group” (Molecules, 2019).

Legend:
[1] = Ames MPF Penta 2 microplate mutagenicity assay, TA98; assay type: cell-based; settings: Salmonella typhimurium, read-out: FIB (fold induction over baseline)
Method: (§1) The assay is a liquid microplate modification of the traditional Salmonella test. During the procedure, bacteria are exposed to different concentrations of a test compound for 90 min in a medium containing sufficient histidine (S. typhimurium) or tryptophan (E. coli) to support cell divisions. Then, the cultures are diluted in pH indicator medium lacking histidine or tryptophan and aliquoted into 48 wells of a 384-well plate. Within 48 hours, cells that have undergone reversion to amino acid prototrophy will grow into colonies. Bacterial metabolism reduces pH of the medium, changing the color of that well from purple to yellow (https://www.xenometrix.ch).
(§2) The following strains were used in the study: S. typhimurium TA98, TA100, TA1535, TA1537 and E. coli wp2 uvrA[pKM101]. TA100, TA1535 and E. coli strains are used for the detection of base substitution mutations, whereas TA98 and TA1537 are utilized for the detection of frameshift mutations. S. typhimurium strains have GC base pairs, whereas E. coli strain has AT base pair at their primary reversion site and detect certain oxidizing mutagens, cross-linking agents and hydrazines.
(§3) The test procedure provided by Xenometrix (https://www.xenometrix.ch) and described earlier was followed. Briefly, the bacterial strains were grown overnight in exposure medium and exposed to test compounds 4g and 3b in 24-well plates for 90 min at 37 °C with agitation in the absence (–S9) or presence (+S9) of 4.5% phenobarbital/ β-naphthoflavone-induced rat liver S9. Compounds 4g and 3b were dissolved in DMSO and tested at final concentrations of 0.1, 0.2 and 0.5 mM. After the preincubation, the cultures were diluted in the indicator medium and the contents of each 24-well culture were distributed into 48 wells on a 384-well plate and incubated further for 48 h at 37 °C without agitation. After the exposure, the number of wells containing bacteria was scored by eye for yellow wells. Positive and negative controls were included in the assay, and all doses were done in triplicate.
(§4) Pure DMSO was used as the negative control.
(§5) The fold increase of revertants relative to the solvent control was determined by dividing the mean number of positive wells at each dose by the solvent control at baseline. The solvent control at baseline was defined as the mean number of positive wells in the solvent control plus one standard deviation (SD). When an increase of more than 2-fold relative to the baseline at more than one dose with a dose–response is observed the sample is classified as positive, whereas when no response >2 times the baseline and no dose–response is stated the sample is negative.

[2] = Ames MPF Penta 2 microplate mutagenicity assay, TA1537; settings: Salmonella typhimurium, FIB (fold induction over baseline)
Method: as §1, §2, §3, §4, §5

[3] = Ames MPF Penta 2 microplate mutagenicity assay, TA1535; settings: Salmonella typhimurium, FIB (fold induction over baseline)
Method: as §1, §2, §3, §4, §5

[4] = In vitro stability in mouse liver microsomes; assay type: in vitro ADME; settings: for ester hydrolysis in the presence of microsomes: independently of the presence of a NADPH-regenerating system; for Probable Transformation / half-life at 20 µM / microsomal CLint at 20 µM: mouse liver microsomes; for half-life at 20 µM / microsomal CLint at 20 µM: mouse; for half-life at 20 µM: pH 7.4, mouse liver microsomes 0.8 mg/mL, 20 µM compound, NADPH-regenerating system, 37 °C, read-out: t ½; for microsomal CLint at 20 µM: pH 7.4, mouse liver microsomes, calculated from t1/2
How it was run: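 Compound (20 µM) with mouse liver microsomes (0.8 mg/mL), potassium phosphate pH 7.4, NADPH-regenerating system, 37 °C for 15–60 min; parent remaining by UPLC/MS, two repeats. t1/2 from ln % remaining versus time; Clint = (incubation volume/protein) × 0.693/t1/2.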

[5] = S. typhimurium TA98 without S9 (–S9), TA98, –S9, 0.1 mM
[6] = S. typhimurium TA98 without S9 (–S9), TA98, –S9, 0.2 mM
[7] = S. typhimurium TA98 without S9 (–S9), TA98, –S9, 0.5 mM

Question: For CCOC(=O)CN1C(=O)/C(=C/c2ccc(OC)cc2)N(CC(=O)OCC)C1=O [Compound 3b, Diethyl 2,2′-((Z)-4-(4-methoxybenzylidene)-2,5-dioxoimidazolidine-1,3-diyl)diacetate], which fold induction at 90 min, 0.1 mM [1, 5] is on record?
Answer: 0.9

Question: And the fold induction at 90 min, 0.2 mM [1, 6]?
Answer: 0.2

Question: What about the fold induction at 90 min, 0.5 mM [1, 7] of the same compound?
Answer: 0.9

Question: What about the fold induction at 90 min, 0.1 mM ([1]; TA98, +S9, 0.1 mM) of the same compound?
Answer: 0.2

Question: What about the fold induction at 90 min, 0.2 mM ([1]; TA98, +S9, 0.2 mM) of the same compound?
Answer: 0.4

Question: And the fold induction at 90 min, 0.5 mM ([1]; TA98, +S9, 0.5 mM)?
Answer: 0.3

Question: What about the fold induction at 90 min, 0.1 mM ([2]; TA1537, +S9, 0.1 mM) of the same compound?
Answer: 1.1

Question: And the fold induction at 90 min, 0.2 mM ([2]; TA1537, +S9, 0.2 mM)?
Answer: 1.1

Question: And the fold induction at 90 min, 0.5 mM ([2]; TA1537, +S9, 0.5 mM)?
Answer: 0.3

Question: What about the fold induction at 90 min, 0.1 mM ([2]; TA1537, –S9, 0.1 mM) of the same compound?
Answer: 0.3

Question: What about the fold induction at 90 min, 0.2 mM ([2]; TA1537, –S9, 0.2 mM) of the same compound?
Answer: 0.3

Question: And the fold induction at 90 min, 0.5 mM ([2]; TA1537, –S9, 0.5 mM)?
Answer: 0.3

Question: And the fold induction at 90 min, 0.1 mM ([3]; TA1535, +S9, 0.1 mM)?
Answer: 0.5

Question: And the fold induction at 90 min, 0.2 mM ([3]; TA1535, +S9, 0.2 mM)?
Answer: 0.1

Question: What about the fold induction at 90 min, 0.5 mM ([3]; TA1535, +S9, 0.5 mM) of the same compound?
Answer: 0.1

Question: And the fold induction at 90 min, 0.1 mM ([3]; TA1535, –S9, 0.1 mM)?
Answer: 0.8

Question: What about the fold induction at 90 min, 0.2 mM ([3]; TA1535, –S9, 0.2 mM) of the same compound?
Answer: 0.6

Question: What about the fold induction at 90 min, 0.5 mM ([3]; TA1535, –S9, 0.5 mM) of the same compound?
Answer: 1.7

Question: And the “ester hydrolysis in the presence of microsomes” value [4]?
Answer: hydrolysed to monoesters

Question: And the “Probable Transformation” value [4]?
Answer: hydrolysis O-dealkylation

Question: What about the half-life at 20 µM [4] of the same compound?
Answer: 12 min

Question: And the microsomal CLint at 20 µM [4]?
Answer: 75 µL/min/mg

Question: What does the source list for CCOC(=O)CN1C(=O)/C(=C/C=C/c2ccc(OC)cc2)N(CC(=O)OCC)C1=O [Compound 4g, Diethyl 2,2′-((Z)-4-((E)-3-(4-methoxyphenyl)allylidene)-2,5-dioxoimidazolidine-1,3-diyl)diacetate]?
Answer: fold induction at 90 min, 0.1 mM [1, 5]: 0.5; fold induction at 90 min, 0.2 mM [1, 6]: 0.9; fold induction at 90 min, 0.5 mM [1, 7]: 0.2; fold induction at 90 min, 0.1 mM ([1]; TA98, +S9, 0.1 mM): 0.3; fold induction at 90 min, 0.2 mM ([1]; TA98, +S9, 0.2 mM): 0.4; fold induction at 90 min, 0.5 mM ([1]; TA98, +S9, 0.5 mM): 0.6; fold induction at 90 min, 0.1 mM ([2]; TA1537, +S9, 0.1 mM): 1.4; fold induction at 90 min, 0.2 mM ([2]; TA1537, +S9, 0.2 mM): 1.1; fold induction at 90 min, 0.5 mM ([2]; TA1537, +S9, 0.5 mM): 0.8; fold induction at 90 min, 0.1 mM ([2]; TA1537, –S9, 0.1 mM): 0.3; fold induction at 90 min, 0.2 mM ([2]; TA1537, –S9, 0.2 mM): 1.7; fold induction at 90 min, 0.5 mM ([2]; TA1537, –S9, 0.5 mM): 0.5; fold induction at 90 min, 0.1 mM ([3]; TA1535, +S9, 0.1 mM): 0.3; fold induction at 90 min, 0.2 mM ([3]; TA1535, +S9, 0.2 mM): 0.7; fold induction at 90 min, 0.5 mM ([3]; TA1535, +S9, 0.5 mM): 0.3; fold induction at 90 min, 0.1 mM ([3]; TA1535, –S9, 0.1 mM): 0.3; fold induction at 90 min, 0.2 mM ([3]; TA1535, –S9, 0.2 mM): 1.4; fold induction at 90 min, 0.5 mM ([3]; TA1535, –S9, 0.5 mM): 0.6; ester hydrolysis in the presence of microsomes [4]: hydrolysed to monoesters; Probable Transformation [4]: hydrolysis O-dealkylation; half-life at 20 µM [4]: 3 min; microsomal CLint at 20 µM [4]: > 300 µL/min/mg
